Converted amounts (≈) assume the structure as drawn. Where two headings read alike, the source gives them in different places. One block for each compound: values may come before it.
Tests used:
HCT-15 colon cells = assay: Antiproliferative assay, methylene blue staining; assay type: cell-based; conditions: Homo sapiens, read-out: IC50 antiproliferative activity
Description: The following cell lines are obtained from the American Type Culture Collection (ATCC, Rockville, Md., USA): human colon carcinomas HCT-15 (CCL 225) and HCT-116 (CCL 247), human lung adenocarcinoma A549 (CCL 185), human large cell carcinoma NCI-H460 (HTB 177), estrogen-independent breast carcinoma MDA-MB-231 ([…]), prostate cancer cell line Du 145 (HTB 81). The human KB-31 (drug-sensitive) and KB-8511 (multidrug-resistant, Pgp170 overexpressing) epidermoid carcinoma cells are obtained from Dr. R. M. Baker, Roswell Park Memorial Institute (Buffalo, N.Y., USA) and have been previously described (Akiyam S, et al. Somatic Cell Molec Genetics 1985;11:117-126 and Fojo A, et al., Cancer Res. […];45:3002-3007). The human metastatic prostate carcinoma PC-3M is obtained from Dr. I. J. Fidler (MD Anderson Cancer Center, Houston, Tex., USA). The estrogen-dependent human breast carcinoma cell line MCF-7/ADR (multidrug resistant) is a subline of the MCF-7 cell line (ATCC HTB 22) and is obtained from Dr. D. Fabbro (Novartis Pharma AG, Basel, Switzerland) and has been previously described (Blobe G C, et al. J. Biol. Chem. 1993; 268:658-664).
For the antiproliferative assays, cells are seeded at 1.5×10^3/well into 96-well microtiter plates and incubated overnight. Compounds are added in serial dilutions on day 1. The plates are than incubated for additional 5 days. This allowed the control cultures to undergo at least 3 cell divisions. After incubation the cells are fixed with 3.3% v/v glutaraldehyde, washed with water and stained with 0.05% w/v methylene blue. After washing, the dye is eluted with 3% v/v HCl and the optical density measured at 665 nm with a SpectraMax 340 (Bucherer, Basel, Switzerland). IC50 values are determined by a computerized system (SoftPro, Bucherer, Basel, Switzerland) using the formula (OD test—OD start)/(OD control—OD start)×100. IC50 is defined as the drug concentration which leads to 50% of cells per well compared to control cultures (100%) at the end of the incubation period.

[1] = system: 1A9PTX22 cells (β-tubulin mutation); assay: In vitro cytotoxicity assay (MTT); assay type: cell-based, human
Protocol: 1A9 and 1A9PTX22 cells are plated in 96-well plates at 5×10^4 cells/well, plced in a tissue culture incubator and allowed to attach overnight. The next morning, the number of viable cells in the “time 0” plate (3 wells for each cell line) is determined using an MTT assay (Alley M C, et al., Cancer Res. 1988, 48:589-601).
At the same time drugs are added in serial, 10-fold dilutions, to the experimental plates. Corresponding vehicles are added to control plates. Experimental and control plates are then incubated in the tissue culture incubator for 72 hours. After the incubation the number of viable cells is determined in each plate using the MTT assay. IC50s (defined as a concentration of a given compound causing 50% inhibition of cell growth) are determined by comparing cell growth in the drug-treated plate (T−T0) to the cell growth in the corresponding control plate (C−T0). For each experiment results are calculated using average numbers from two sets of plates.
Discodermolide is isolated from the sponge Discodermia dissoluta using the method of Gunasekera SP (supra). Multiple batches of compound of similar purity (all>95% pure, as determined by mass spectrometry, and nuclear magnetic resonance analysis) are used throughout the various studies. For the in vitro cytotoxicity assays all compounds are dissolved in DMSO and are added to the plates with cells to obtain desired concentrations. […] Paclitaxel is purchased from Sigma/Aldrich, (St. Louis, Mo.). For the in vivo hollow fiber assay, solid discodermolide is dissolved in pure ethanol to create a stock solution which is diluted just before dosing with Cremophor EL and D5W to a final concentration of 16.7% Cremophor EL, 8.3% ethanol and 75% D5W. The compound is administered to mice as a single, 15 mg/kg iv injection. Positive control animals receive clinical formulations of paclitaxel (TAXOL) diluted 4-fold with D5W (12.5% Cremophor El, 12.5% ethanol and 75% D5W final concentrations) and administered iv, at 15 mg/kg, once daily for five consecutive days. Vehicle controls are administered according to the corresponding drug schedules.

SMILES: C=C/C=C\[C@H](C)[C@H](OC(N)=O)[C@@H](C)[C@H](O)[C@@H](C)C/C(C)=C\[C@H](C)[C@@H](O)[C@@H](C)/C=C\[C@@H](O)C[C@@H]1OC(=O)[C@H](C)[C@@H](O)[C@H]1C [discodermolide, (+)-Discodermolide]
- IC50 (HCT-15 colon cells; HCT-15, 120 h): ~8 nM
- IC50 ([1]; 1A9PTX22 cells, 72 hours, second experiment): 3 ng/mL (≈ 0.00505 µM)
- IC50 ([1]; Homo sapiens, 1A9/ptx-22, 72 h): 3 ng/mL (≈ 0.00505 µM)

- IC50 (HCT-15 colon cells; 120 h, HCT-15 colon cells, 5 days incubation): ~120 nM
SMILES: CC(=O)O[C@H]1C(=O)[C@@]2(C)[C@H]([C@H](OC(=O)c3ccccc3)[C@]3(O)C[C@H](OC(=O)[C@H](O)[C@@H](NC(=O)c4ccccc4)c4ccccc4)C(C)=C1C3(C)C)[C@]1(OC(C)=O)CO[C@@H]1C[C@@H]2O [paclitaxel, reference compound]
- IC50 ([1]; Homo sapiens, 1A9/ptx-22, 72 h, 1A9PTX22 cells, 72 hours, first experiment, read-out: IC50): 15 ng/mL (≈ 0.0176 µM)
- IC50 ([1]; Homo sapiens, 1A9/ptx-22, 72 h, 1A9PTX22 cells, 72 hours, second experiment, read-out: IC50): 9 ng/mL (≈ 0.0105 µM)
- fold resistance of 1A9PTX22 versus parental 1A9 ([1]; from IC50s of the two in vitro experiments): 20 fold
